For one series, the system named is C. elegans dauers. The series is described as follows: Dauer recovery assay on drug plates. The series is classed as in vivo. The conditions noted are these: for dauer recovery: C. elegans dauers induced by mutation or pheromone, drug plates; for dauer recovery of daf-2 dauers: daf-2(e1370) mutant dauers, all concentrations. The procedure: Minimal media plates were used for the drug assays: 3.0 g NaCl, 20 g agarose (Sigma-Type II #A6877) and 970 ml of water. The autoclaved solution was cooled to 50-55° C. before 25 ml of 1M KPO4 (pH 6.0), 1.0 ml 1M CaCl2, 1.0 ml of 1M MgSO4, and 1 ml of 5 mg/ml cholesterol were added. In some assays, Escherichia coli (DH5α) bacteria arrested with streptomycin was added to each plate.
In some experiments, 100-200 eggs or synchronized L1s were put onto the drug plates. For all experiments described herein, about 10,000 L1s were placed in 10 ml of S Medium containing 1-2 ml of a 0.4% (w/v) solution of Escherichia coli DH5α bacteria in M9 solution (Wood (1988) (Cold Spring Harbor Laboratory Press, Cold Spring Harbor, N.Y.)) arrested with streptomycin, in a 25 ml flask on a rotating heated water bath at 25° C. For wild-type N2 dauers, 600 μl of the 0.4% bacterial solution and pheromone was also added to flask as described in Gottlieb and Ruvkun (1994) Genetics 137:107120. The pheromone preparation is a solution prepared as follows. Animals were grown in a large flask for several generations, and then spun down. The supernatant was boiled down to a brownish powder and then ethanol extracted. After 72 hours of liquid growth, animals were centrifuged and the supernatant removed. Animals were then resuspended in a 15 ml tube with a pre-heated 25° C. solution of 1% SDS and tubes were placed on a rocker at 25° C. for 30 minutes. Animals were centrifuged and the SDS removed. Animals were washed with either M9 or S medium (Wood (1988) (Cold Spring Harbor Laboratory Press, Cold Spring Harbor, N.Y.)) 4-6 times. After a final spin, 100-200 dauers were placed onto the drug plates without food. 24 and 48 hours later, plates were scored for the number of dauers and non-dauer adults.
For each strain tested, a control plate without any drug, with and without food was also tested. […] The assay was performed at 25° C., which means that the daf-c mutants are still under full dauer inducing conditions.

Series [1] deals with C. elegans DAF-16 with the serine or threonine of the Akt/PKB consensus sites mutated to alanine.
The next series relates to T1, C. elegans DAF-16.
T1 sequence: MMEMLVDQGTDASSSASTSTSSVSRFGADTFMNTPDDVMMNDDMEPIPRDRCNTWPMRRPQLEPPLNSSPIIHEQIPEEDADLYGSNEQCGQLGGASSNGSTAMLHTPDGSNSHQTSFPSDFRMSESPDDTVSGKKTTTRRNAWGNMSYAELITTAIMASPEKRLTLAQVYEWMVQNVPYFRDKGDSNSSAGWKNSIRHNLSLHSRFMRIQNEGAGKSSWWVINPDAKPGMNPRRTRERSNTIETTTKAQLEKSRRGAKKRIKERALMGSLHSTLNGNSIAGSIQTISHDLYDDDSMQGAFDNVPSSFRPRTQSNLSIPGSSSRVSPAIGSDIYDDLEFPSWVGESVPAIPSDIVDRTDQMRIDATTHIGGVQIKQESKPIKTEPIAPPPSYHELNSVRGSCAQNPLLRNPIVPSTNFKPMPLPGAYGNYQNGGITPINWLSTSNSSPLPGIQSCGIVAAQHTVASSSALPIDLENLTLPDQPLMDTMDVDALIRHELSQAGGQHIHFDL

Series [2] has as its system C. elegans unc-86 mutants. The series is described as follows: 5HT accumulation in the NSM neuron of unc-86 mutants. The series is classed as in vivo.
The next series has as its system A. caninum L3. The series is described as follows: Drug assay in A. caninum (resumption of feeding of infective L3). The series is classed as in vivo, Ancylostoma caninum. The conditions noted are these: for dauer recovery: A. caninum L3, agonist without serum and GSM. On the procedure: Hookworm infective L3 animals were collected from 1-4 wk old coproculture by the Baermann technique, and decontaminated with 1% HCL in BU buffer (50 mM Na2PO4/22 mM KH2PO4/70 mM NaCl, pH 6.8) (Hawdon and Schad (1991) in Developmental Adaptations in Nematodes., ed. C. A. Toft, A. A. a. L. B. (Oxford University Press, Oxford), pp. 274-298; and Hawdon and Schad (1991) J. Helm. Soc. Wash. 58:140-142) for 30 minutes at 22° C. Approximately 250 L3 animals were incubated in individual wells of a 96-well tissue culture plate containing 0.1 ml RPMI1640 tissue culture medium, supplemented with 0.25 mM HEPES pH 7.2, 100 U/ml penicillin, 100 μg/ml streptomycin, 100 μg/ml gentamycin, and 2.5 μg/ml amphotericin B. The L3 animals were activated to resume development and feeding by including 10% (v/v) canine serum and 25 mM S-methyl-glutathione (GSM; Hawdon et al. (1995) Exper. Parasitol. 80:205-211). Non-activated L3 animals were incubated in RPMI alone (i.e., without the stimulus). Stock solutions of the drugs were made in RPMI, and included in the incubation at the indicated concentrations. […] The L3 animals were incubated at 37° C. 5% CO2 for 24 hours. The percentage of feeding L3 animals was determined by incubating the L3 animals with 2.5 mg/ml FITC-BSA for 2-3 hours, followed by counting the number of L3 animals that had ingested the labeled BSA by microscopic examination under epi-fluorescent illumination (Hawdon and Schad (1990) J. Parasit. 76:394-398). Each treatment was done in triplicate, and each experiment was repeated at least once.

The mark [3] stands for this setting: wild-type pheromone-induced dauers.

Entries after “also recorded” stand apart in the source; their conditions may differ.

Consider `C[C@@H]1O[C@H](C[N+](C)(C)C)C[C@H]1O` [muscarine], for which the dauer recovery result in the series with C. elegans dauers is “promoted dauer recovery”.
With `C[N+](C)(C)CCOC(N)=O` [carbachol], the dauer recovery result in the series on C. elegans dauers is reported as “promoted recovery of dauers induced by mutation as well as pheromone”.
Take human AKT: the in vitro phosphorylation result in series [1] was “in vitro phosphorylation of DAF-16 (or fragments of DAF-16) is abolished”; in the series with C. elegans DAF-16, “human AKT will phosphorylate C. elegans DAF-16”.
Take `CNCCC(Oc1ccc(C(F)(F)F)cc1)c1ccccc1` (centres unmarked) [Prozac]: the “5HT accumulation in the NSM” value in series [2] is “causes 5HT accumulation in the NSM to disappear”.
For the molecule `c1ccc([C@H]2CN3CCSC3=N2)cc1` [Levamisole, levamisole], the dauer recovery result in the series on C. elegans dauers was “no effect on dauer recovery”.
For `CC[C@@H]1C(=O)OC[C@@H]1Cc1cncn1C` [pilocarpine], the dauer recovery entry in the series with C. elegans dauers is on record as “promoted dauer recovery; also recorded: promoted recovery of dauers induced by mutation as well as pheromone”; in the series on A. caninum L3 it was “failed to recover”. Moreover, the results for the “concentration of maximum recovery” value with C. elegans dauers (daf-7(e1372) dauers) and in the series with C. elegans dauers (setting [3]) were 5 mM and 1 mM, respectively.
As to `COC(=O)C1=CCCN(C)C1` [arecoline], the dauer recovery entry in the series on C. elegans dauers is on record as “promoted dauer recovery; also recorded: promoted recovery of dauers induced by mutation as well as pheromone”; in the series on A. caninum L3, “promotes dauer recovery”. Also, the “maximal response lower than for the other agonists” value is given as 10 fold lower with C. elegans dauers (C. elegans, FIG. 44B) and 10 fold lower in the series on A. caninum L3 (A. caninum, FIG. 44B). Besides, in the series with C. elegans dauers, the “dauer recovery of daf-2 dauers” value is recorded as “fails to recover at all concentrations”.
`O=C1CCCN1CC#CCN1CCCC1` [oxotremorine]: the results for the dauer recovery result in the series on C. elegans dauers and with A. caninum L3 were “promoted dauer recovery; also recorded: promoted recovery of dauers induced by mutation as well as pheromone” and “promotes dauer recovery”, respectively. The Emax at 1000 µM in the series on C. elegans dauers (Caenorhabditis elegans, daf-7(e1372), daf-10(e1387) double mutant, 1 mM oxotremorine, read-out: maximum response, recovery) was found to be 13%. The dauers that recover was determined as 30% in the series on C. elegans dauers (daf-1(m40) dauers in oxotremorine) and 50% with C. elegans dauers (daf-4(m63) dauers in oxotremorine). For the same molecule, the “dauer recovery of daf-2 dauers” value with C. elegans dauers is given as “fails to recover at all concentrations”. The “concentration of maximum recovery” value in the series on C. elegans dauers (daf-7(e1372) dauers) was found to be 5 mM; in the series with C. elegans dauers (setting [3]) it was 1 mM; in the series on A. caninum L3 (A. caninum L3 dauers) it was 5 mM. The molecule also had a dauers recovered in the series on C. elegans dauers (daf-7(e1372) dauers, 1 mM oxotremorine) of 40%.
Broadly, the inhibition is the relative decrease from the control value, in per cent. Consider `CN1[C@@H]2CC[C@H]1C[C@@H](OC(=O)C(CO)c1ccccc1)C2` (some centres unmarked) [atropine], for which, in the series on C. elegans dauers (C. elegans, 1 mM oxotremorine, increasing atropine), the “inhibition of muscarinic agonist-induced dauer recovery” value is on record as “completely inhibited; also recorded: all of the drug-induced dauer recovery was inhibited”. Moreover, the “recovery induced by oxotremorine in combination with atropine” value in the series on C. elegans dauers (daf-7(e1372) dauers, 1 mM oxotremorine + 1 mM atropine) is reported as 5%. Moreover, the “oxotremorine response in presence of atropine” value in the series on C. elegans dauers (daf-7(e1372) dauers, 1 mM oxotremorine + 5 mM atropine) was “completely abolished”. Also, the dauer larvae recovered in the series on C. elegans dauers (pheromone-induced dauers, bacterial food plus atropine, 25° C.) is 21%. Besides, the “recovery with arecoline plus atropine” value in the series with A. caninum L3 (A. caninum L3, 0.5 mM arecoline and 1.0 mM atropine (increasing atropine in FIG. 44C)) is on record as “completely inhibited; also recorded: failed to recover”. Moreover, the “recovery / resumption of feeding” value with A. caninum L3 (A. caninum L3, 10% serum and 25 mM GSM, atropine 0.5 mM) was “completely inhibited recovery”. Moreover, in the series with A. caninum L3 (Ancylostoma caninum, read-out: inhibition of recovery), the inhibition at 500 µM came to 99.5%.

Values taken from patent US6861256B2, “Therapeutic and diagnostic tools for impaired glucose tolerance conditions” (The General Hospital Corporation, priority 1997, dated 2005).
